Measured values reported in ChEMBL document CHEMBL1201862, “PubChem BioAssay data set” (2004).
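Results reflect a 48-hour exposure of cells in 96-well plates to compound at five concentrations. GI50 = concentration required for 50% inhibition of growth.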 Calls of active or inactive are those of the source. Cut-off read from the data, not from the text of the source: active = GI50 up to about 1.1 µM and inactive = higher.

How the values were obtained:
Assay in all cases: NCI anticancer screen, dose series, 48 h
[1] = test system: M14
[2] = test system: KM12
[3] = test system: SK-MEL-2
[4] = test system: NCI-H226
[5] = test system: OVCAR-8
[6] = test system: UACC-257
[7] = test system: TK-10
[8] = test system: NCI-H522
[9] = test system: SK-MEL-28
[10] = test system: SW-620
[11] = test system: EKVX
[12] = test system: Hs-578T
[13] = test system: MOLT-4
[14] = test system: CAKI-1
[15] = test system: T47D
[16] = test system: RPMI-8226
[17] = test system: OVCAR-5
[18] = test system: HCT-116
[19] = test system: MCF7
[20] = test system: A549

Measured: GI50

CC(C)CC(NC(O)[BH2-][N+](C)(C)C)C(=O)NC(Cc1ccccc1)C(=O)N[C@H]1c2ccsc2/C(=N/O)[C@H]1O (stereo not given in full)
inactive: [1] > 100 µM | [2] > 100 µM | [3] > 100 µM | [4] > 100 µM | [5] > 100 µM | [6] > 100 µM | [7] > 100 µM | [8] > 100 µM | [9] > 100 µM | [10] > 100 µM | [11] > 100 µM | [12] > 100 µM | [13] > 100 µM | [14] > 100 µM | [15] > 100 µM | [16] > 100 µM | [17] > 100 µM | [18] > 100 µM | [19] > 100 µM | [20] > 100 µM

Oc1ccc(SCc2cc(O)c(O)c(O)c2)cc1
inactive: [1] 17.9 µM | [2] 20.3 µM | [3] 26.1 µM | [4] 23.7 µM | [5] 21.6 µM | [6] > 100 µM | [7] > 100 µM | [8] 22 µM | [9] 92.9 µM | [10] 36.5 µM | [11] > 100 µM | [12] 77.8 µM | [13] 27 µM | [14] 39.6 µM | [15] > 100 µM | [16] 26.7 µM | [17] 22.4 µM | [18] 17.1 µM | [19] 20.4 µM | [20] 49.5 µM
